Laboratory results taken from ChEMBL document CHEMBL1126394, “Synthesis of 1-(2-Indolyl)pyridinium salts: a prodrug approach to acetylcholinesterase inhibition” (Bioorg Med Chem Lett, 1992).

Assays:
Acetylcholinesterase = Acetylcholinesterase (Electrophorus electricus, UniProt O42275); test: Inhibitory activity against acetylcholinesterase as a prodrug was demonstarted
[1] = pKa value was determined; format: physicochemical

Sequence of Acetylcholinesterase (O42275 whole entry): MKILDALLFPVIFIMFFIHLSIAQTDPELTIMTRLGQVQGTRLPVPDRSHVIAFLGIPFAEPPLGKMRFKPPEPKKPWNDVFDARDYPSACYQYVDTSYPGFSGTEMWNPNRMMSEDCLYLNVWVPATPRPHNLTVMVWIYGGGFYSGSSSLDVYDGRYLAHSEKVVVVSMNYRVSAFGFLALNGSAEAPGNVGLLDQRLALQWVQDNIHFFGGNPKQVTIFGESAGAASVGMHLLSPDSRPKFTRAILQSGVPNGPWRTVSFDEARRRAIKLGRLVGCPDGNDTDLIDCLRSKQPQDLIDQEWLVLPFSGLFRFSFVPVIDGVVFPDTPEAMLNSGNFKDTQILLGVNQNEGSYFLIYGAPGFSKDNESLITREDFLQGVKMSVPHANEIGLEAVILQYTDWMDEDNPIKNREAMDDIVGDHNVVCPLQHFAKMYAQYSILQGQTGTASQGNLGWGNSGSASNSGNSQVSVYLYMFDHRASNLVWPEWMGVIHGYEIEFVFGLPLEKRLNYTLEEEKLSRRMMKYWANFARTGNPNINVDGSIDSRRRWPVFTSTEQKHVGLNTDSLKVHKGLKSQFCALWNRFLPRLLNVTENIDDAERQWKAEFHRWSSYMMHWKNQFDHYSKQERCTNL

Compound	IC50 (Acetylcholinesterase) [µM]	pKa [1]
CC1c2cc(OC(=O)N(C)C)ccc2NC1[n+]1cccc(C(N)=O)c1 (configuration not stated)	50	
CNC(=O)Oc1ccc2c(c1)[C@]1(C)CCN(C)[C@@H]1N2C [PHYSOSTIGMINE]		7.9
